Data as given in PubChem BioAssay AID2060897 (Molecular Pharmacology Branch, DTP, NCI, 2025).

Tested on: 966289-007-R4-J1-PDC complex spheroid viability
Assay: Anticancer human tumor 966289-007-R4-J1-PDC patient-derived pancreatic adenocarcinoma cell line growth inhibition [RAS]
Settings: for IC50: curve of first compound; for viability, T/C: stronger effect = lower value
In short: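 Multi-cell-type spheroids: tumor cells plus HUVEC endothelial cells and mesenchymal stem cells. RAS-pathway inhibitors were combined with targeted agents, each dosed in half-log steps down from clinical Cmax, or from 10 microM when Cmax was unknown.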

[1] = second compound 0.000949 µM, first compound 0.0316 µM
[2] = second compound 0.000949 µM, first compound 0.1 µM
[3] = second compound 0.000949 µM, first compound 0.316 µM
[4] = second compound 0.000949 µM, first compound 1 µM
[5] = second compound 0.000949 µM, first compound 3.16 µM
[6] = second compound 0.000949 µM, first compound 10 µM
[7] = second compound 0.003 µM, first compound 0.0316 µM
[8] = second compound 0.003 µM, first compound 0.1 µM
[9] = second compound 0.003 µM, first compound 0.316 µM
[10] = second compound 0.003 µM, first compound 1 µM
[11] = second compound 0.003 µM, first compound 3.16 µM
[12] = second compound 0.003 µM, first compound 10 µM
[13] = second compound 0.00949 µM, first compound 0.0316 µM
[14] = second compound 0.00949 µM, first compound 0.1 µM
[15] = second compound 0.00949 µM, first compound 0.316 µM
[16] = second compound 0.00949 µM, first compound 1 µM
[17] = second compound 0.00949 µM, first compound 3.16 µM
[18] = second compound 0.00949 µM, first compound 10 µM
[19] = second compound 0.03 µM, first compound 0.0316 µM
[20] = second compound 0.03 µM, first compound 0.1 µM
[21] = second compound 0.03 µM, first compound 0.316 µM
[22] = second compound 0.03 µM, first compound 1 µM
[23] = second compound 0.03 µM, first compound 3.16 µM
[24] = second compound 0.03 µM, first compound 10 µM
[25] = second compound 0.0949 µM, first compound 0.0316 µM
[26] = second compound 0.0949 µM, first compound 0.1 µM
[27] = second compound 0.0949 µM, first compound 0.316 µM
[28] = second compound 0.0949 µM, first compound 1 µM
[29] = second compound 0.0949 µM, first compound 3.16 µM
[30] = second compound 0.0949 µM, first compound 10 µM
[31] = second compound 0.3 µM, first compound 0.0316 µM
[32] = second compound 0.3 µM, first compound 0.1 µM
[33] = second compound 0.3 µM, first compound 0.316 µM
[34] = second compound 0.3 µM, first compound 1 µM
[35] = second compound 0.3 µM, first compound 3.16 µM
[36] = second compound 0.3 µM, first compound 10 µM
[37] = second compound 0.000949 µM, first compound 0.00316 µM
[38] = second compound 0.000949 µM, first compound 0.01 µM
[39] = second compound 0.003 µM, first compound 0.00316 µM
[40] = second compound 0.003 µM, first compound 0.01 µM
[41] = second compound 0.00949 µM, first compound 0.00316 µM
[42] = second compound 0.00949 µM, first compound 0.01 µM
[43] = second compound 0.03 µM, first compound 0.00316 µM
[44] = second compound 0.03 µM, first compound 0.01 µM
[45] = second compound 0.0949 µM, first compound 0.00316 µM
[46] = second compound 0.0949 µM, first compound 0.01 µM
[47] = second compound 0.3 µM, first compound 0.00316 µM
[48] = second compound 0.3 µM, first compound 0.01 µM
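Also: spheroids exposed to agents for one week before readout.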
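For viability, T/C in this document: percent viability relative to DMSO vehicle control wells as 100%.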

`NC1c2ccccc2OC12CCN(c1cnc3c(N4CCCc5ncccc54)n[nH]c3n1)CC2` (stereo not drawn) + CCn1c(-c2cccnc2C(C)OC)c2c3cc(ccc31)N1CCOC(CC(NC(=O)C(C(C)C)N(C)C(=O)C3(F)CCN(C(=O)C#CC(C)(C)N(C)C)CC3)C(=O)N3CCCC(N3)C(=O)OCC(C)(C)C2)C1 was tested, and the IC50 (second compound 0.000949 µM) was over 10000 nM, the IC50 (second compound 0.003 µM) was over 10000 nM and the IC50 (second compound 0.00949 µM) was over 10000 nM. The IC50 (second compound 0.03 µM) was over 10000 nM, the IC50 (second compound 0.0949 µM) was over 10000 nM and the IC50 (second compound 0.3 µM) was over 10000 nM. It also gave a viability, T/C [1] of 113%, a viability, T/C [2] of 81.5% and a viability, T/C [3] of 109%. It also gave a viability, T/C [4] of 69.6%, a viability, T/C [5] of 82.1% and a viability, T/C [6] of 74.5%. The viability, T/C [7] was 113%, the viability, T/C [8] was 59% and the viability, T/C [9] was 102%. The viability, T/C [10] was 63.4%, the viability, T/C [11] was 91.9% and the viability, T/C [12] was 96.9%. It also gave a viability, T/C [13] of 92.4%, a viability, T/C [14] of 76.4% and a viability, T/C [15] of 77.6%. The viability, T/C [16] was 88.4%, the viability, T/C [17] was 104% and the viability, T/C [18] was 93.2%. For the same molecule, the viability, T/C [19] was 62.7%, the viability, T/C [20] was 73.7% and the viability, T/C [21] was 96.9%. The viability, T/C [22] was 74.3%, the viability, T/C [23] was 104% and the viability, T/C [24] was 94.8%. It also gave a viability, T/C [25] of 80.9%, a viability, T/C [26] of 91.1% and a viability, T/C [27] of 128%. The viability, T/C [28] was 91.8%, the viability, T/C [29] was 117% and the viability, T/C [30] was 107%. The viability, T/C [31] was 94.4%, the viability, T/C [32] was 89.3% and the viability, T/C [33] was 96%. For the same molecule, the viability, T/C [34] was 103%, the viability, T/C [35] was 147% and the viability, T/C [36] was 91.9%.

For `CC(C)n1nc(-c2ccc3oc(N)nc3c2)c2c(N)ncnc21` + CCn1c(-c2cc(N3CCN(C)CC3)cnc2C(C)OC)c2c3cc(ccc31)-c1csc(n1)CC(NC(=O)C1CC1C)C(=O)N1CCCC(N1)C(=O)OCC(C)(C)C2, the IC50 (second compound 0.000949 µM) was 28.1 nM, the IC50 (second compound 0.003 µM) was 32.5 nM and the IC50 (second compound 0.00949 µM) was 30.7 nM. For the same molecule, the IC50 (second compound 0.03 µM) was 25.6 nM, the IC50 (second compound 0.0949 µM) was 26.1 nM and the IC50 (second compound 0.3 µM) was 25.4 nM. For the same molecule, the viability, T/C (second compound 0.000949 µM, first compound 0.000316 µM) was 89.3%, the viability, T/C (second compound 0.000949 µM, first compound 0.001 µM) was 116% and the viability, T/C [37] was 133%. The viability, T/C [38] was 78.5%, the viability, T/C [1] was 50.5% and the viability, T/C [2] was 16.2%. It also gave a viability, T/C (second compound 0.003 µM, first compound 0.000316 µM) of 83.3%, a viability, T/C (second compound 0.003 µM, first compound 0.001 µM) of 128% and a viability, T/C [39] of 93.6%. For the same molecule, the viability, T/C [40] was 108%, the viability, T/C [7] was 50.6% and the viability, T/C [8] was 18.5%. The viability, T/C (second compound 0.00949 µM, first compound 0.000316 µM) was 105%, the viability, T/C (second compound 0.00949 µM, first compound 0.001 µM) was 108% and the viability, T/C [41] was 107%. For the same molecule, the viability, T/C [42] was 108%, the viability, T/C [13] was 48.5% and the viability, T/C [14] was 15.2%. For the same molecule, the viability, T/C (second compound 0.03 µM, first compound 0.000316 µM) was 107%, the viability, T/C (second compound 0.03 µM, first compound 0.001 µM) was 90.8% and the viability, T/C [43] was 108%. For the same molecule, the viability, T/C [44] was 106%, the viability, T/C [19] was 38.1% and the viability, T/C [20] was 17.4%. For the same molecule, the viability, T/C (second compound 0.0949 µM, first compound 0.000316 µM) was 98%, the viability, T/C (second compound 0.0949 µM, first compound 0.001 µM) was 117% and the viability, T/C [45] was 106%. It also gave a viability, T/C [46] of 112%, a viability, T/C [25] of 38.4% and a viability, T/C [26] of 14.7%. It also gave a viability, T/C (second compound 0.3 µM, first compound 0.000316 µM) of 91.8%, a viability, T/C (second compound 0.3 µM, first compound 0.001 µM) of 107% and a viability, T/C [47] of 112%. For the same molecule, the viability, T/C [48] was 87.1%, the viability, T/C [31] was 41.6% and the viability, T/C [32] was 16.6%.

`CC(=O)OC12COC1CC(O)C1(C)C(=O)C(O)C3=C(C)C(OC(=O)C(O)C(NC(=O)OC(C)(C)C)c4ccccc4)CC(O)(C(OC(=O)c4ccccc4)C21)C3(C)C` (stereo not drawn) + CCn1c(-c2cc(N3CCN(C)CC3)cnc2C(C)OC)c2c3cc(ccc31)-c1csc(n1)CC(NC(=O)C1CC1C)C(=O)N1CCCC(N1)C(=O)OCC(C)(C)C2 showed an IC50 (second compound 0.000949 µM) of under 31.6 nM, an IC50 (second compound 0.003 µM) of under 31.6 nM and an IC50 (second compound 0.00949 µM) of under 31.6 nM. It also gave an IC50 (second compound 0.03 µM) of under 31.6 nM, an IC50 (second compound 0.0949 µM) of under 31.6 nM and an IC50 (second compound 0.3 µM) of under 31.6 nM. For the same molecule, the viability, T/C [1] was 6.12%, the viability, T/C [2] was 13.9% and the viability, T/C [3] was 13.5%. The viability, T/C [4] was 21.5%, the viability, T/C [5] was 29.3% and the viability, T/C [6] was 55%. It also gave a viability, T/C [7] of 6.11%, a viability, T/C [8] of 12.1% and a viability, T/C [9] of 10.9%. For the same molecule, the viability, T/C [10] was 19.1%, the viability, T/C [11] was 35.8% and the viability, T/C [12] was 60.8%. For the same molecule, the viability, T/C [13] was 6.07%, the viability, T/C [14] was 11.1% and the viability, T/C [15] was 13.5%. For the same molecule, the viability, T/C [16] was 16.5%, the viability, T/C [17] was 42.2% and the viability, T/C [18] was 54.5%. For the same molecule, the viability, T/C [19] was 7.27%, the viability, T/C [20] was 8.94% and the viability, T/C [21] was 16.7%. The viability, T/C [22] was 20.9%, the viability, T/C [23] was 40.2% and the viability, T/C [24] was 60.1%. The viability, T/C [25] was 5.65%, the viability, T/C [26] was 11.1% and the viability, T/C [27] was 13.4%. It also gave a viability, T/C [28] of 19.3%, a viability, T/C [29] of 51.7% and a viability, T/C [30] of 59.8%. It also gave a viability, T/C [31] of 7.9%, a viability, T/C [32] of 14.3% and a viability, T/C [33] of 18.4%. It also gave a viability, T/C [34] of 23.5%, a viability, T/C [35] of 41.7% and a viability, T/C [36] of 56%.

For `C=CC(=O)Nc1cc(Nc2nccc(-c3cn(C)c4ccccc34)n2)c(OC)cc1N(C)CCN(C)C` + CCn1c(-c2cc(N3CCN(C)CC3)cnc2C(C)OC)c2c3cc(ccc31)-c1csc(n1)CC(NC(=O)C1CC1C)C(=O)N1CCCC(N1)C(=O)OCC(C)(C)C2, the IC50 (second compound 0.000949 µM) was over 1000 nM, the IC50 (second compound 0.003 µM) was over 1000 nM and the IC50 (second compound 0.00949 µM) was over 1000 nM. For the same molecule, the IC50 (second compound 0.03 µM) was over 1000 nM, the IC50 (second compound 0.0949 µM) was over 1000 nM and the IC50 (second compound 0.3 µM) was over 1000 nM. For the same molecule, the viability, T/C [37] was 88%, the viability, T/C [38] was 88.8% and the viability, T/C [1] was 116%. For the same molecule, the viability, T/C [2] was 69.1%, the viability, T/C [3] was 83.5% and the viability, T/C [4] was 75.5%. It also gave a viability, T/C [39] of 90.7%, a viability, T/C [40] of 92.2% and a viability, T/C [7] of 80.2%. The viability, T/C [8] was 82.7%, the viability, T/C [9] was 110% and the viability, T/C [10] was 79.3%. The viability, T/C [41] was 111%, the viability, T/C [42] was 87.6% and the viability, T/C [13] was 98.8%. It also gave a viability, T/C [14] of 78.7%, a viability, T/C [15] of 92.9% and a viability, T/C [16] of 94.7%. The viability, T/C [43] was 74.4%, the viability, T/C [44] was 71.4% and the viability, T/C [19] was 100%. The viability, T/C [20] was 88.4%, the viability, T/C [21] was 120% and the viability, T/C [22] was 96.8%. It also gave a viability, T/C [45] of 86%, a viability, T/C [46] of 111% and a viability, T/C [25] of 98.1%. It also gave a viability, T/C [26] of 114%, a viability, T/C [27] of 88.2% and a viability, T/C [28] of 101%. For the same molecule, the viability, T/C [47] was 102%, the viability, T/C [48] was 89.6% and the viability, T/C [31] was 103%. The viability, T/C [32] was 143%, the viability, T/C [33] was 123% and the viability, T/C [34] was 103%.
